# Test results published in the CATMoS acute toxicity set (Mansouri et al. 2021).
# Test: GHS categories as the set defines them, by LD50: 1 up to 5, 2 up to 50, 3 up to 300, 4 up to 2000, 5 above 2000 mg/kg
# Details: rat; in vivo; po
row,Structure (SMILES),GHS category
1,CC(C)=CCN(CC=C(C)C)CCC(C#N)c1cccc2ccccc12 (stereo not given),4
2,CC1COc2ccccc2N1C(=O)C(Cl)Cl (stereo not given),5
3,CCCCCCCCOCCCCCCCC,5
4,Cn1c(=O)c2c(ncn2CC(=O)N2CCOCC2)n(C)c1=O,5
5,COc1nc(Nc2ccccc2)nc(Nc2ccc(C=Cc3ccc(Nc4nc(Nc5ccccc5)nc(OC)n4)cc3S(=O)(=O)O)c(S(=O)(=O)O)c2)n1,5
6,CC(C)C[Si](Cl)(Cl)Cl,3
7,CCCCNC1CC(C)(C)NC(C)(C)C1,4
8,C=CC(=O)OCC(CC)(COCC(CC)(COC(=O)C=C)COC(=O)C=C)COC(=O)C=C,5
9,C=CC(C)C(=O)OCC (stereo not given),5
10,Cc1ccc(S(=O)(=O)NC(=O)NN2CCCCCC2)cc1,5
11,CCOC(=O)c1c(N)sc2c1CCN(Cc1ccccc1)C2,5
12,CCCC(=O)c1ccc2c(c1)OC(C)C(=O)N2C (stereo not given),5
13,O=S(=O)(O)Oc1ccc(C(c2ccc(O)cc2)c2ccccn2)cc1 (stereo not given),5
14,CCCCCCCCCCCCCCCCCCCC,5
15,O=C(O)Cc1ccc(OCC(O)CO)c(Cl)c1 (stereo not given),5
16,CC(=O)N(C)C(=O)Oc1cccc2c1OCO2,4
17,CCCOc1nn(C(=O)NS(=O)(=O)c2ccccc2C(=O)OC)c(=O)n1C,5
18,CCC(=O)O[C@]1(C(C)=O)CC[C@H]2[C@@H]3CCC4=CC(=O)C=C[C@]4(C)[C@H]3[C@@H](O)C[C@@]21C,5
19,CCOC(=O)NCC1CCN(c2nc(N)c3cc(OC)c(OC)cc3n2)CC1,4
20,c1ccc2oc(C3(Cn4ccnc4)OCCCO3)cc2c1,4
21,CNC(=O)Oc1cc(C)c(S(C)(=O)=O)c(C)c1,4
22,COC1=C(C(=O)O)N2C(=O)[C@@H](NC(=O)[C@H](N)C3=CCC=CC3)[C@H]2SC1,5
23,C=CCN1CCC23c4c5ccc(O)c4OC2C(=O)CCC3(O)C1C5 (stereo not given),4

row,Structure (SMILES),GHS category
1,CC(=O)OC1CCC2C3CCC4CC(=O)CCC4(C)C3CCC12C (stereo not given),5
2,CS(=O)(=O)c1cc(C(F)(F)F)ccc1C(=O)c1cnoc1C1CC1,5
3,C=CCN1C(=O)CCc2c(OCC(O)CN3CCC(Cc4ccccc4)CC3)cccc21 (stereo not given),4
4,N#CCN(CC#N)CC#N,3
5,CN1C(=O)COc2cc(C(=O)C=Cc3ccc(Cl)cc3)ccc21,5
6,CC(=O)C(N=Nc1ccc(C(=O)Nc2ccc(C(N)=O)cc2)cc1)C(=O)Nc1ccc2[nH]c(=O)[nH]c2c1 (stereo not given),5
7,COCC1=C(C(=O)OC(C)OC(=O)OC(C)C)N2C(=O)[C@@H](NC(=O)/C(=N\OC)c3csc(N)n3)[C@H]2SC1 (stereo not given in full),5
8,C[N@+]1(CCNP(=S)(NCC[N@@+]2(C)Cc3c(ccc4c3OCO4)[C@@H]3[C@H]2c2cc4c(cc2C[C@@H]3O)OCO4)NCC[N@@+]2(C)Cc3c(ccc4c3OCO4)[C@@H]3[C@H]2c2cc4c(cc2C[C@@H]3O)OCO4)Cc2c(ccc3c2OCO3)[C@@H]2[C@H]1c1cc3c(cc1C[C@@H]2O)OCO3,4
9,C=C(C)C(=O)OCCOC(=O)NCCC(C)CC(C)(C)CNC(=O)OCCOC(=O)C(=C)C (stereo not given),5
10,O=C1CN2CCOC2(c2ccccc2F)c2cc(Cl)ccc2N1CCO (stereo not given),5
11,COc1cc(NC(=O)C(/N=N/c2cc(OC)c(S(=O)(=O)Nc3ccccc3)cc2OC)C(C)=O)c(OC)cc1Cl (stereo not given),5
12,CC(=O)Nc1cc2cccnc2c(N2CCN(CCO)CC2)n1,5
13,CN(C)Cc1ccccc1Cl,4
14,O=C(Nc1ccc(Cl)cc1)Nc1ccc(Cl)c(Cl)c1,5
15,CCc1cc(C)cc(CC)c1-c1c(OC(=O)C(C)(C)C)n2n(c1=O)CCOCC2,5
16,CC#CCn1c(Br)nc2c1c(=O)[nH]c(=O)n2C,4
17,C#CCNC(=O)Oc1cccc2c1OC(C)(C)O2,3
18,CCC(C)=NO[Si](ON=C(C)CC)(ON=C(C)CC)c1ccccc1,5
19,CC(O)CN(CC(C)O)C(=O)CCCCC(=O)N(CC(C)O)CC(C)O (stereo not given),5
20,Clc1ccc(C2=NCOCS2)cc1,4
21,CCCCCCCCCCCCCCCCNP1(=S)OCc2cc([N+](=O)[O-])ccc2O1 (stereo not given),3
22,O=C1NC(c2ccccc2)=C2C(=O)NC(c3ccccc3)=C12,5
23,OCCOc1nn(-c2cccc(C(F)(F)F)c2)c2ncccc12,4

row,Structure (SMILES),GHS category
1,CCC(=O)OCC(=O)[C@@]1(OC(=O)CC)[C@@H](C)C[C@H]2[C@@H]3CCC4=CC(=O)C=C[C@]4(C)[C@@]3(F)[C@@H](O)C[C@@]21C,5
2,O=C(O)C1C2C=CC(C2)C1C(=O)O (stereo not given),5
3,CCN1CCN(C(=O)N[C@@H](C(=O)N[C@@H]2C(=O)N3[C@@H]2SC(C)(C)[C@H]3C(=O)O)c2ccccc2)C(=O)C1=O,5
4,COc1nc(C)nc(NC(=O)NS(=O)(=O)c2ccccc2OCCCl)n1,5
5,CCOC(=O)CCC(C)=O,5
6,CC(C)=CCCC(C)CCOCC=O (stereo not given),5
7,CC1Oc2cc(C(=O)C=Cc3ccccc3)ccc2N(C)C1=O (stereo not given),5
8,O=S(=O)([O-])CCC[n+]1ccccc1,5
9,CCN(C(=O)Cl)C1CCCCC1,4
10,CCCCCCCCCCCCCCCOS(=O)(=O)O,5
11,CCC(=O)OC1CC2CC1C1CC=CC21 (stereo not given),5
12,O=C(Nc1ccc(Cc2ccc(NC(=O)NC3CCCCC3)cc2)cc1)NC1CCCCC1,5
13,CC(=O)Oc1ccccc1C(=O)Oc1cccc(CO[N+](=O)[O-])c1,5
14,CCN(CCO)N=O,5
15,CC(CCC(=O)NCCS(=O)(=O)O)C1CCC2C3C(O)CC4CC(O)CCC4(C)C3CCC12C (stereo not given),5
16,CC1Oc2cc(C(=O)c3ccccc3)ccc2NC1=O (stereo not given),5
17,CS(=O)(=O)c1ccc(O)c(Cl)c1,4
18,Cc1nc(Cl)cc(Nc2ncc(C(=O)Nc3c(C)cccc3Cl)s2)n1,5
19,O=C1c2ccccc2C(=O)N1CC1=Nc2ccccc2Cc2ccccc21,5
20,CCOC(=O)C(=O)Nc1cc(SC)nc(C)n1,4
21,COc1ccc2c(c1)CCN(c1ccccc1)C2c1ccc(OCCN2CCCCC2)cc1 (stereo not given),4
22,CC1=C(C(=O)O)N2C(=O)[C@@H](NC(=O)[C@H](N)c3ccc(O)cc3)[C@H]2SC1,5
23,CCOC(=O)c1ccc(NC(=O)CC)cc1NC(=O)c1ccc(C(=O)O)cc1,5

row,Structure (SMILES),GHS category
1,O=C1C(O)N=C(c2ccccc2)c2cc(Cl)ccc2N1CC1CC1 (stereo not given),5
2,COc1cc([N+](=O)[O-])ccc1N=NC(C(C)=O)C(=O)Nc1cc(Cl)ccc1OC (stereo not given),5
3,CCC(C)(C)NC(=O)c1cnc2cccc(C)n2c1=O,3
4,CCCBr,5
5,CCCCCCCCCCCCCCCCCC(=O)OCC(COC(=O)CCCCCCCCCCCCCCCCC)OC(=O)CCCCCCCCCCCCCCCCC,5
6,O=C1NC(=O)c2ccccc21,5
7,CCCCCCCC/C=C\CCCCCCCC#N,5
8,COC(=O)c1ccc(C(=O)OC)c([N+](=O)[O-])c1,5
9,NCCCC[C@H](OP(=O)(O)CCCCc1ccccc1)C(=O)N1CCC[C@H]1C(=O)O,5
10,CCC(C)(NC(=O)c1cc(Cl)c(C)c(Cl)c1)C(=O)CCl (stereo not given),5
11,CSC(=O)c1c(C(F)F)nc(C(F)(F)F)c(C(=O)SC)c1CC(C)C,5
12,Cc1ccc(OC(=O)c2ccccc2OC(N)=O)cc1,5
13,Cc1ccc(NC(=O)c2cc(C)[nH]n2)cc1,5
14,C=CC(=O)OCCCOc1ccc(C(=O)Oc2ccc(OC(=O)c3ccc(OCCCOC(=O)C=C)cc3)c(C)c2)cc1,5
15,CCCCCNC(=O)c1cnc2cccc(C)n2c1=O,3
16,CC=CCC1=C(C)CCC1,5
17,COc1ccccc1NC(=O)c1cc2ccccc2c(N=Nc2ccc(C(N)=O)cc2)c1O,5
18,COc1cc2c(cc1OC)C(c1cccc(Cl)c1)=NN=C(C)C2,5
19,CCCCCCCCCCOC(C)=O,5
20,CCCCCCCCCCCCC,5
21,CO/N=C(\C(=O)N[C@@H]1C(=O)N2C(C(=O)[O-])=C(C[N+]34CCC(C(N)=O)(CC3)CC4)CS[C@H]12)c1nsc(N)n1,5
22,CC(=O)OC(C)c1ccccc1 (racemic),5
23,Clc1ccc2c(n1)C(c1ccccc1Cl)=NCc1nncn1-2,5

row,Structure (SMILES),GHS category
1,Cc1cc(C)c(C(=O)P(=O)(c2ccccc2)c2ccccc2)c(C)c1,5
2,CCOC(C)(C)C,5
3,COc1ccc(N)cc1N,5
4,CC(c1ccccc1)C1Nc2cc(Cl)c(S(N)(=O)=O)cc2S(=O)(=O)N1 (stereo not given),5
5,CCCc1nc2ncnn2c(CCC)c1Cc1ccc(-c2ccccc2-c2nn[nH]n2)cc1,4
6,CC(C)=NO,5
7,NC(=O)c1ccc(NC(=O)c2ccc(N)cc2)cc1,5
8,COc1ccccc1-c1nc(C)c(C(N)=O)s1,5
9,O=S(=O)(c1ccc(Cl)cc1)c1ccc(Cl)cc1,5
10,Nc1cccc2c(S(=O)(=O)O)cccc12,5
11,O=C(O)c1ccccc1SSc1ccccc1C(=O)O,5
12,O=C=Nc1cccc2ccccc12,5
13,C[C@H]1CO[C@@](Cn2cncn2)(c2cc3ccccc3o2)O1,4
14,CCOC(=O)CC(CC(C)=O)C(=O)OCC (stereo not given),5
15,CCC(Oc1ccc(F)c(C(F)(F)F)c1)C(O)=NCc1ccccc1 (stereo not given),5
16,O=C(O)CCn1nc2ccccn2c1=O,5
17,CCCCCCCCCCCC(=O)OCC(C)(C)C=NCC1(C)CC(N=CC(C)(C)COC(=O)CCCCCCCCCCC)CC(C)(C)C1 (stereo not given),5
18,CCCCCC1COCCC1OC(C)=O (stereo not given),5
19,CC(C)(Oc1ccc(Cl)cc1)C(=O)OC(COC(=O)c1cccnc1)COC(=O)c1cccnc1,5
20,O=C(NC(=O)c1c(F)cccc1F)Nc1ccc(Oc2ccc(C(F)(F)F)cc2Cl)cc1F,5
21,CCC(C)c1cc(S(=O)(=O)O)cc(-n2nc3ccccc3n2)c1O (stereo not given),5
22,CCOC(C)C(C=NNC(N)=S)=NNC(N)=S (stereo not given),5
23,CC(=O)CC(=O)O[C@H]1C[C@@H](C)CC[C@@H]1C(C)C,5
